In brackets after ≈: the same amount, converted by molar mass.
Experiments:
Pseudomonas aeruginosa [1] = assay: Antibacterial activity against Pseudomonas aeruginosa NY217 by broth dilution method; type: functional
Pseudomonas aeruginosa [2] = assay: Antibacterial activity against Pseudomonas aeruginosa NY219 by broth dilution method; type: functional
Pseudomonas aeruginosa [3] = assay: Antibacterial activity against Pseudomonas aeruginosa NY215 by broth dilution method; type: functional
Pseudomonas aeruginosa [4] = assay: Antibacterial activity against Pseudomonas aeruginosa NY214 by broth dilution method; type: functional
Pseudomonas aeruginosa [5] = assay: Antibacterial activity against Pseudomonas aeruginosa NY220 by broth dilution method; type: functional
Pseudomonas aeruginosa [6] = assay: Antibacterial activity against Pseudomonas aeruginosa PAO1 by broth dilution method; type: functional
Pseudomonas aeruginosa [7] = assay: Antibacterial activity against Pseudomonas aeruginosa NY217 harboring Pseudomonas aeruginosa PAO1 pmrAB gene by broth dilution method; type: functional, organism-based
Pseudomonas aeruginosa [8] = assay: Antibacterial activity against Pseudomonas aeruginosa NY215 harboring pUCP18 by broth dilution method; type: functional, organism-based
Pseudomonas aeruginosa [9] = assay: Antibacterial activity against Pseudomonas aeruginosa NY214 harboring Pseudomonas aeruginosa PAO1 pmrAB gene by broth dilution method; type: functional, organism-based
Pseudomonas aeruginosa [10] = assay: Antibacterial activity against Pseudomonas aeruginosa PAO1 harboring Pseudomonas aeruginosa NY217 deltaoprH-phoPQ::Gm/pAU148 by broth dilution method; type: functional, organism-based
Pseudomonas aeruginosa [11] = assay: Antibacterial activity against Pseudomonas aeruginosa NY214 harboring arnB::TC by broth dilution method; type: functional, organism-based
Pseudomonas aeruginosa [12] = assay: Antibacterial activity against Pseudomonas aeruginosa NY217 harboring arnB::TC by broth dilution method; type: functional, organism-based
Pseudomonas aeruginosa [13] = assay: Antibacterial activity against Pseudomonas aeruginosa PAO1 harboring deltapmrAB::Tc by broth dilution method; type: functional, organism-based
Pseudomonas aeruginosa [14] = assay: Antibacterial activity against Pseudomonas aeruginosa NY215 harboring Pseudomonas aeruginosa PAO1 phoPQ gene by broth dilution method; type: functional, organism-based
Pseudomonas aeruginosa [15] = assay: Antibacterial activity against Pseudomonas aeruginosa PAO1 harboring Pseudomonas aeruginosa PAO1 deltapmrAB::Tc/pAU126 by broth dilution method; type: functional, organism-based
Pseudomonas aeruginosa [16] = assay: Antibacterial activity against Pseudomonas aeruginosa NY219 harboring Pseudomonas aeruginosa PAO1 phoPQ gene by broth dilution method; type: functional, organism-based
Pseudomonas aeruginosa [17] = assay: Antibacterial activity against Pseudomonas aeruginosa PAO1 harboring deltaoprH-phoPQ::Gm by broth dilution method; type: functional, organism-based
Pseudomonas aeruginosa [18] = assay: Antibacterial activity against Pseudomonas aeruginosa NY217 harboring pUCP18 by broth dilution method; type: functional, organism-based
Pseudomonas aeruginosa [19] = assay: Antibacterial activity against Pseudomonas aeruginosa NY219 harboring Pseudomonas aeruginosa PAO1 pmrAB gene by broth dilution method; type: functional, organism-based
Pseudomonas aeruginosa [20] = assay: Antibacterial activity against Pseudomonas aeruginosa PAO1 harboring Pseudomonas aeruginosa NY219 deltaoprH-phoPQ::Gm/pAU149 by broth dilution method; type: functional, organism-based
Pseudomonas aeruginosa [21] = assay: Antibacterial activity against Pseudomonas aeruginosa PAO1 harboring deltaoprH-phoPQ::Gm/pUCP18 by broth dilution method; type: functional, organism-based
Pseudomonas aeruginosa [22] = assay: Antibacterial activity against Pseudomonas aeruginosa PAO1 harboring deltapmrAB::Tc/pUCP18 by broth dilution method; type: functional, organism-based
Pseudomonas aeruginosa [23] = assay: Antibacterial activity against Pseudomonas aeruginosa PAO1 harboring Pseudomonas aeruginosa NY214 deltaoprH-phoPQ::Gm/pAU146 by broth dilution method; type: functional, organism-based
Pseudomonas aeruginosa [24] = assay: Antibacterial activity against Pseudomonas aeruginosa PAO1 harboring Pseudomonas aeruginosa NY220 deltapmrAB::Tc/pAU154 by broth dilution method; type: functional, organism-based
Pseudomonas aeruginosa [25] = assay: Antibacterial activity against Pseudomonas aeruginosa NY220 harboring arnB::TC by broth dilution method; type: functional, organism-based
Pseudomonas aeruginosa [26] = assay: Antibacterial activity against Pseudomonas aeruginosa NY220 harboring Pseudomonas aeruginosa PAO1 pmrAB gene by broth dilution method; type: functional, organism-based
Pseudomonas aeruginosa [27] = assay: Antibacterial activity against Pseudomonas aeruginosa NY215 harboring Pseudomonas aeruginosa PAO1 pmrAB gene by broth dilution method; type: functional, organism-based
Pseudomonas aeruginosa [28] = assay: Antibacterial activity against Pseudomonas aeruginosa NY217 harboring Pseudomonas aeruginosa PAO1 phoPQ gene by broth dilution method; type: functional, organism-based
Pseudomonas aeruginosa [29] = assay: Antibacterial activity against Pseudomonas aeruginosa NY220 harboring pUCP18 by broth dilution method; type: functional, organism-based
Pseudomonas aeruginosa [30] = assay: Antibacterial activity against Pseudomonas aeruginosa NY214 harboring Pseudomonas aeruginosa PAO1 phoPQ gene by broth dilution method; type: functional, organism-based
Pseudomonas aeruginosa [31] = assay: Antibacterial activity against Pseudomonas aeruginosa PAO1 harboring Pseudomonas aeruginosa PAO1 deltaoprH-phoPQ::Gm/pAU124 by broth dilution method; type: functional, organism-based
Pseudomonas aeruginosa [32] = assay: Antibacterial activity against Pseudomonas aeruginosa NY215 harboring arnB::TC by broth dilution method; type: functional, organism-based
Pseudomonas aeruginosa [33] = assay: Antibacterial activity against Pseudomonas aeruginosa NY219 harboring pUCP18 by broth dilution method; type: functional, organism-based
Pseudomonas aeruginosa [34] = assay: Antibacterial activity against Pseudomonas aeruginosa PAO1 harboring arnB::TC by broth dilution method; type: functional, organism-based
Pseudomonas aeruginosa [35] = assay: Antibacterial activity against Pseudomonas aeruginosa NY214 harboring pUCP18 by broth dilution method; type: functional, organism-based
Pseudomonas aeruginosa [36] = assay: Antibacterial activity against Pseudomonas aeruginosa PAO1 harboring Pseudomonas aeruginosa NY215 deltaoprH-phoPQ::Gm/pAU147 by broth dilution method; type: functional, organism-based
Pseudomonas aeruginosa [37] = assay: Antibacterial activity against Pseudomonas aeruginosa NY220 harboring Pseudomonas aeruginosa PAO1 phoPQ gene by broth dilution method; type: functional, organism-based

Which MIC (Pseudomonas aeruginosa [1]) does the source give for `CC1(C)S[C@@H]2[C@H](NC(=O)[C@H](C(=O)O)c3ccsc3)C(=O)N2[C@H]1C(=O)O` [TICARCILLIN] here?
The MIC was 32 µg/mL (≈ 83.2 µM).

What about the MIC (Pseudomonas aeruginosa [2]) of the same molecule?
Its MIC is 32 µg/mL (≈ 83.2 µM).

What about the MIC (Pseudomonas aeruginosa [3]) of the same molecule?
The MIC was 32 µg/mL (≈ 83.2 µM).

What about the MIC (Pseudomonas aeruginosa [4]) of the same molecule?
The MIC was 32 µg/mL (≈ 83.2 µM).

What about the MIC (Pseudomonas aeruginosa [5]) of the same molecule?
Its MIC is 32 µg/mL (≈ 83.2 µM).

What about the MIC (Pseudomonas aeruginosa [6]) of the same molecule?
The MIC was 8 µg/mL (≈ 20.8 µM).

How did the MIC (Pseudomonas aeruginosa [1]) turn out when `CCn1cc(C(=O)O)c(=O)c2ccc(C)nc21` [NALIDIXIC ACID] was run?
The MIC was 64 µg/mL (≈ 276 µM).

And the MIC (Pseudomonas aeruginosa [2])?
The MIC was 64 µg/mL (≈ 276 µM).

What about the MIC (Pseudomonas aeruginosa [3]) of the same molecule?
Its MIC is > 256 µg/mL.

And the MIC (Pseudomonas aeruginosa [4])?
The MIC was > 256 µg/mL.

What about the MIC (Pseudomonas aeruginosa [5]) of the same molecule?
The MIC was > 256 µg/mL.

And the MIC (Pseudomonas aeruginosa [6])?
The MIC was 64 µg/mL (≈ 276 µM).

Which MIC (Pseudomonas aeruginosa [1]) does the source give for GENTAMICIN here?
The MIC was 4 µg/mL.

And the MIC (Pseudomonas aeruginosa [2])?
The MIC was 4 µg/mL.

And the MIC (Pseudomonas aeruginosa [3])?
Its MIC is 32 µg/mL.

And the MIC (Pseudomonas aeruginosa [4])?
The MIC was 4 µg/mL.

And the MIC (Pseudomonas aeruginosa [5])?
Its MIC is 4 µg/mL.

What about the MIC (Pseudomonas aeruginosa [6]) of the same molecule?
The MIC was 0.25 µg/mL.

With `NC[C@H]1O[C@H](O[C@H]2[C@H](O)[C@@H](O[C@H]3O[C@H](CO)[C@@H](O)[C@H](N)[C@H]3O)[C@H](N)C[C@@H]2N)[C@H](N)C[C@@H]1O` [TOBRAMYCIN] as the molecule, how does the MIC (Pseudomonas aeruginosa [1]) read?
The MIC was 1 µg/mL (≈ 2.14 µM).

And the MIC (Pseudomonas aeruginosa [2])?
The MIC was 2 µg/mL (≈ 4.28 µM).

What about the MIC (Pseudomonas aeruginosa [3]) of the same molecule?
Its MIC is 2 µg/mL (≈ 4.28 µM).

What about the MIC (Pseudomonas aeruginosa [4]) of the same molecule?
The MIC was 2 µg/mL (≈ 4.28 µM).

What about the MIC (Pseudomonas aeruginosa [5]) of the same molecule?
Its MIC is 8 µg/mL (≈ 17.1 µM).

And the MIC (Pseudomonas aeruginosa [6])?
The MIC was 0.25 µg/mL (≈ 0.535 µM).

Which MIC (Pseudomonas aeruginosa [7]) does the source give for POLYMYXIN B here?
Its MIC is 1 µg/mL.

What about the MIC (Pseudomonas aeruginosa [8]) of the same molecule?
The MIC was 8 µg/mL.

And the MIC (Pseudomonas aeruginosa [9])?
The MIC was 1 µg/mL.

What about the MIC (Pseudomonas aeruginosa [10]) of the same molecule?
Its MIC is 4 µg/mL.

And the MIC (Pseudomonas aeruginosa [11])?
The MIC was 0.5 µg/mL.

What about the MIC (Pseudomonas aeruginosa [12]) of the same molecule?
The MIC was 0.5 µg/mL.

What about the MIC (Pseudomonas aeruginosa [13]) of the same molecule?
Its MIC is 0.25 µg/mL.

And the MIC (Pseudomonas aeruginosa [14])?
Its MIC is 0.5 µg/mL.

What about the MIC (Pseudomonas aeruginosa [1]) of the same molecule?
Its MIC is 8 µg/mL.

What about the MIC (Pseudomonas aeruginosa [15]) of the same molecule?
Its MIC is < 0.25 µg/mL.

And the MIC (Pseudomonas aeruginosa [16])?
The MIC was 1 µg/mL.

And the MIC (Pseudomonas aeruginosa [17])?
Its MIC is 0.5 µg/mL.

And the MIC (Pseudomonas aeruginosa [18])?
The MIC was 8 µg/mL.

And the MIC (Pseudomonas aeruginosa [2])?
The MIC was 8 µg/mL.

And the MIC (Pseudomonas aeruginosa [19])?
Its MIC is 1 µg/mL.

What about the MIC (Pseudomonas aeruginosa [3]) of the same molecule?
Its MIC is 8 µg/mL.

What about the MIC (Pseudomonas aeruginosa [20]) of the same molecule?
Its MIC is 4 µg/mL.

What about the MIC (Pseudomonas aeruginosa [21]) of the same molecule?
The MIC was 0.25 µg/mL.

What about the MIC (Pseudomonas aeruginosa [22]) of the same molecule?
The MIC was 0.25 µg/mL.

And the MIC (Pseudomonas aeruginosa [23])?
The MIC was 4 µg/mL.

And the MIC (Pseudomonas aeruginosa [24])?
Its MIC is 4 µg/mL.

And the MIC (Pseudomonas aeruginosa [4])?
Its MIC is 8 µg/mL.

And the MIC (Pseudomonas aeruginosa [25])?
The MIC was 0.5 µg/mL.

And the MIC (Pseudomonas aeruginosa [26])?
Its MIC is 8 µg/mL.

And the MIC (Pseudomonas aeruginosa [27])?
Its MIC is 0.5 µg/mL.

What about the MIC (Pseudomonas aeruginosa [28]) of the same molecule?
The MIC was 1 µg/mL.

And the MIC (Pseudomonas aeruginosa [29])?
The MIC was 8 µg/mL.

And the MIC (Pseudomonas aeruginosa [5])?
Its MIC is 8 µg/mL.

And the MIC (Pseudomonas aeruginosa [30])?
The MIC was 1 µg/mL.

What about the MIC (Pseudomonas aeruginosa [6]) of the same molecule?
Its MIC is 0.5 µg/mL.

And the MIC (Pseudomonas aeruginosa [31])?
Its MIC is 0.25 µg/mL.

And the MIC (Pseudomonas aeruginosa [32])?
The MIC was 0.5 µg/mL.

What about the MIC (Pseudomonas aeruginosa [33]) of the same molecule?
Its MIC is 8 µg/mL.

And the MIC (Pseudomonas aeruginosa [34])?
Its MIC is 0.5 µg/mL.

And the MIC (Pseudomonas aeruginosa [35])?
Its MIC is 8 µg/mL.

What about the MIC (Pseudomonas aeruginosa [36]) of the same molecule?
Its MIC is 4 µg/mL.

And the MIC (Pseudomonas aeruginosa [37])?
Its MIC is 8 µg/mL.

Which results are given for `CC1(C)S[C@@H]2[C@H](NC(=O)[C@H](NC(=O)N3CCNC3=O)c3ccccc3)C(=O)N2[C@H]1C(=O)O` [AZLOCILLIN]?
MIC (Pseudomonas aeruginosa [1]): 16 µg/mL (≈ 34.7 µM); MIC (Pseudomonas aeruginosa [2]): 8 µg/mL (≈ 17.3 µM); MIC (Pseudomonas aeruginosa [3]): 8 µg/mL (≈ 17.3 µM); MIC (Pseudomonas aeruginosa [4]): 8 µg/mL (≈ 17.3 µM); MIC (Pseudomonas aeruginosa [5]): 16 µg/mL (≈ 34.7 µM); MIC (Pseudomonas aeruginosa [6]): 2 µg/mL (≈ 4.33 µM)

For `O=C(O)c1cn(C2CC2)c2cc(N3CCNCC3)c(F)cc2c1=O` [CIPROFLOXACIN], which MIC (Pseudomonas aeruginosa [1]) is on record?
Its MIC is 1 µg/mL (≈ 3.02 µM).

What about the MIC (Pseudomonas aeruginosa [3]) of the same molecule?
The MIC was 4 µg/mL (≈ 12.1 µM).

For `CO/N=C(\C(=O)N[C@@H]1C(=O)N2C(C(=O)O)=C(CSc3nc(=O)c(O)nn3C)CS[C@H]12)c1csc(N)n1` [CEFTRIAXONE], which MIC (Pseudomonas aeruginosa [1]) is on record?
The MIC was 16 µg/mL (≈ 28.9 µM).

And the MIC (Pseudomonas aeruginosa [2])?
The MIC was 32 µg/mL (≈ 57.7 µM).

And the MIC (Pseudomonas aeruginosa [3])?
Its MIC is 32 µg/mL (≈ 57.7 µM).

And the MIC (Pseudomonas aeruginosa [4])?
Its MIC is 16 µg/mL (≈ 28.9 µM).

What about the MIC (Pseudomonas aeruginosa [5]) of the same molecule?
The MIC was 32 µg/mL (≈ 57.7 µM).

And the MIC (Pseudomonas aeruginosa [6])?
Its MIC is 4 µg/mL (≈ 7.21 µM).

What does the source list for `CC1(C)S[C@@H]2[C@H](NC(=O)C(C(=O)O)c3ccccc3)C(=O)N2[C@H]1C(=O)O` (stereo partly specified) [CARBENICILLIN]?
MIC (Pseudomonas aeruginosa [1]): > 256 µg/mL; MIC (Pseudomonas aeruginosa [2]): 256 µg/mL (≈ 677 µM); MIC (Pseudomonas aeruginosa [3]): 256 µg/mL (≈ 677 µM); MIC (Pseudomonas aeruginosa [4]): 256 µg/mL (≈ 677 µM); MIC (Pseudomonas aeruginosa [5]): > 256 µg/mL; MIC (Pseudomonas aeruginosa [6]): 64 µg/mL (≈ 169 µM)
